Counter-ions that a name gives are not always drawn. Like-named read-outs stand apart in the source and are kept apart here.
Assays:
[1] = tested on: HEK293T/ACE2 cells
[2] = tested on: rVSVΔG-GFP/VSVG; assay: microbe, parasite or virus in culture; format: cell-based; details: for activity at 10 µM: Vesicular stomatitis virus, HEK-293T, 16 h, read-out: rVSVΔG-GFP/VSVG GFP (%)
[3] = tested on: rVSVΔG-GFP/SARS2-S; assay: microbe, parasite or virus in culture; format: cell-based; details: for activity at 10 µM: Severe acute respiratory syndrome coronavirus 2, HEK-293T, 16 h, read-out: rVSVΔG-GFP/SARS2-S GFP (%); for rVSVΔG-GFP/SARS2-S GFP (%): 10 μM, HEK293T/ACE2, 16 hpi, GFP-positive cells, vehicle-treated = 100%
[4] = target: purified ACE2; details: read-out: dissociation constant (KD), ref Lu et al., 2021; cited from earlier work
[5] = target: SARS2-S–NRP-1 binding (rS1 / rNRP-1) (Homo sapiens, UniProt O14786)
Sequence of SARS2-S–NRP-1 binding (rS1 / rNRP-1) (O14786 22-856): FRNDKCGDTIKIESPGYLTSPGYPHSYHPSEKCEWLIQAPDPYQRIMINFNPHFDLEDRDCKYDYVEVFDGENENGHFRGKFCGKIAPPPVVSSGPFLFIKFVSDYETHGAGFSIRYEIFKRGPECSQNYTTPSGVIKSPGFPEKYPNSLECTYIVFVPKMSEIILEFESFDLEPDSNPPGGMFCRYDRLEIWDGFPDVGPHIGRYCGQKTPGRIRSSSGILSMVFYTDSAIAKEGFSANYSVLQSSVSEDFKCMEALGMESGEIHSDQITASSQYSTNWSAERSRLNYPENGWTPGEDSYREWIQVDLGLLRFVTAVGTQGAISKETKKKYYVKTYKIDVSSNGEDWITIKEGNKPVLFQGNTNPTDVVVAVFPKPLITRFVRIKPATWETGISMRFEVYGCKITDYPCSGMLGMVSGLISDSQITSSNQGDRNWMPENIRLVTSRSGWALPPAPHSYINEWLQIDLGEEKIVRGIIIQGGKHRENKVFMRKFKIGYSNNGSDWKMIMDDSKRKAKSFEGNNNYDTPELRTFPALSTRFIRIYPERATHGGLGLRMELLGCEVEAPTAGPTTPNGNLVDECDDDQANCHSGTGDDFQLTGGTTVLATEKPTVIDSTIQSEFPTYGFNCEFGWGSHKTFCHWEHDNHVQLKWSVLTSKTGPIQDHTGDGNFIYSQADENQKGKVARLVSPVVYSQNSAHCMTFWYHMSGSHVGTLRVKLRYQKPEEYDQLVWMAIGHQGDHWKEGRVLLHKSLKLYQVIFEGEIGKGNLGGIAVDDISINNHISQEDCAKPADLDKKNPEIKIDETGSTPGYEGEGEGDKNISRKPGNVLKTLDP

[6] = tested on: rVSVΔG-GFP/SARS2-S; assay: microbe, parasite or virus in culture; details: Severe acute respiratory syndrome coronavirus 2, HEK-293T
[7] = tested on: rVSVΔG-GFP/SARS2-S
[8] = tested on: VeroE6/TMPRSS2 cells; details: 10 μM, 17.5 h
[9] = 10 μM, HEK293T/ACE2, 16 hpi, GFP-positive cells, vehicle-treated = 100%

Compound	rVSVΔG-GFP/SARS2-S Hoechst (%) ([1]; human)	rVSVΔG-GFP/VSVG Hoechst (%) ([1]; human)	activity at 10 µM [2]	activity at 10 µM [3]	also measured
CCCCc1oc2ccc(NS(C)(=O)=O)cc2c1C(=O)c1ccc(OCCCN(CCCC)CCCC)cc1 [Dronedarone hydrochloride]	99.72%	101.34%			
CSc1ccc2c(c1)N(CCC1CCCCN1C)c1ccccc1S2 (stereo not shown) [Thioridazine hydrochloride]	98.59%	95.38%	119%	15.8%	
CC/C(=C(\c1ccccc1)c1ccc(OCCN(C)C)cc1)c1ccccc1 [Tamoxifen citrate]	99.67%	97.14%	106%	16.3%	
C=CC(=O)Nc1cc(Nc2nccc(-c3cn(C)c4ccccc34)n2)c(OC)cc1N(C)CCN(C)C.CS(=O)(=O)O [AZD-9291 mesylate]					rVSVΔG-GFP/VSVG GFP (%) [2, 9]: 112.06%; rVSVΔG-GFP/SARS2-S GFP (%) [3]: 5.36%; rVSVΔG-GFP/SARS2-S Hoechst (%) [1]: 98.67%; rVSVΔG-GFP/VSVG Hoechst (%) [1]: 98.67%
C[C@@H](NCCCc1cccc(C(F)(F)F)c1)c1cccc2ccccc12 [Cinacalcet hydrochloride]	97.33%	95.94%			
CN1CCN(CCCN2c3ccccc3Sc3ccc(C(F)(F)F)cc32)CC1 [Trifluoperazine dihydrochloride]	107.56%	97.29%			Kd [4]: 33.3 µM
COc1cc2c(Nc3ccc(Br)cc3F)ncnc2cc1OCC1CCN(C)CC1 [Vandetanib (ZD6474), Vandetanib]	104.11%	99.04%			
OCCN1CCN(CCCN2c3ccccc3Sc3ccc(C(F)(F)F)cc32)CC1 [Fluphenazine hydrochloride, Fluphenazine dihydrochloride]	103.35%	100.59%	106%	19.3%	
Fc1ccc([C@@H]2CCNC[C@H]2COc2ccc3c(c2)OCO3)cc1 [Paroxetine hydrochloride]	102.73%	98.03%			
O=C(c1ccc(OCCN2CCCCC2)cc1)c1c(-c2ccc(O)cc2)sc2cc(O)ccc12 [Raloxifene hydrochloride]	101.70%	103.53%			
CC[C@H]1OC(=O)[C@H](C)[C@@H](O[C@H]2C[C@@](C)(OC)[C@@H](O)[C@H](C)O2)[C@H](C)[C@@H](O[C@@H]2O[C@H](C)C[C@H](N(C)C)[C@H]2O)[C@](C)(O)C[C@@H](C)CN(C)[C@H](C)[C@@H](O)[C@]1(C)O [Azithromycin dihydrate]	100.22%	101.30%			
CC(CN(C)C)CN1c2ccccc2CCc2ccccc21 (stereo not shown) [Trimipramine maleate]		99.90%			
CN1CC2c3ccccc3Oc3ccc(Cl)cc3C2C1 (stereo not shown) [Asenapine Maleate, Asenapine maleate]	98.20%	95.98%			
Cc1ccc(NC(=O)c2ccc(CN3CCN(C)CC3)cc2)cc1Nc1nccc(-c2cccnc2)n1 [Imatinib Mesylate (STI571), Imatinib Mesylate]	96.53%	94.49%		20.8%	rVSVΔG-GFP/VSVG GFP (%) [2]: 103.15%
CN1CCN(CCCN2c3ccccc3Sc3ccc(Cl)cc32)CC1 [Prochlorperazine Maleate, Prochlorperazine dimaleate]	97.05%	93.26%	131%	16.6%	
Clc1ccc2c(c1)C(N1CCNCC1)=Nc1ccccc1O2 [Amoxapine]	102.06%	99.31%	116%	23.7%	
CN(C)CCOc1ccc(/C(=C(/CCCl)c2ccccc2)c2ccccc2)cc1 [Toremifene citrate]	99.98%	98.74%			rVSVΔG-GFP/VSVG GFP (%) [2, 9]: 109.35%; rVSVΔG-GFP/SARS2-S GFP (%) [3]: 8.32%
CNCCC=C1c2ccccc2CCc2ccccc21 [Nortriptyline hydrochloride]	81.23%	76.77%	91.7%	17.4%	
CN[C@H]1CC[C@@H](c2ccc(Cl)c(Cl)c2)c2ccccc21 [Sertraline hydrochloride]	101.27%	97.33%	105%	15.8%	
OCCN1CCN(CCCN2c3ccccc3Sc3ccc(Cl)cc32)CC1 [Perphenazine]		86.64%			
CN(C)CCOc1ccc(/C(=C(/CCCl)c2ccccc2)c2ccccc2)cc1 [Toremifene]	101.27%	90.44%			rVSVΔG-GFP/VSVG GFP (%) [2, 9]: 142.24%; rVSVΔG-GFP/SARS2-S GFP (%) [3]: 21.77%
NC(N)=NCCC[C@H](NC(=O)c1sccc1NS(=O)(=O)c1cccc2nsnc12)C(=O)O [EG00229]					concentration required to inhibit SARS2-S–NRP-1 binding [5]: 1 mM
Cc1c(-c2ccc(O)cc2)n(Cc2ccc(OCCN3CCCCCC3)cc2)c2ccc(O)cc12 [Bazedoxifene acetate]	88.96%	102.51%			
CC(CN(C)C)CN1c2ccccc2Sc2ccccc21 (stereo not shown) [Alimemazine tartrate]					EC50 [6]: 2.42 µM; NRP1–S1 Binding (Normalized signal intensity) [5]: inhibited; SI (CC50/EC50) [7]: 12.2; VeroE6/TMPRSS2 cell viability [8]: did not affect
CN(C)CCCN1c2ccccc2Sc2ccc(Cl)cc21 [Chlorpromazine hydrochloride]		97.98%			Kd [4]: 13.8 µM
CN1CCC[C@@H]1CCO[C@](C)(c1ccccc1)c1ccc(Cl)cc1 [Clemastine fumarate]	106.94%	101.47%	105%	12.5%	
